# From patent US7422846B2, “Natural ligand for orphan G protein coupled receptor GPR86 and methods of use” (Euroscreen S.A, priority 2001, dated 2008)
# Target: T1, GPR86 (P2Y13) human receptor (Homo sapiens, UniProt Q9BPV8, T179M)
# T1 sequence (Q9BPV8 22-354 T179M): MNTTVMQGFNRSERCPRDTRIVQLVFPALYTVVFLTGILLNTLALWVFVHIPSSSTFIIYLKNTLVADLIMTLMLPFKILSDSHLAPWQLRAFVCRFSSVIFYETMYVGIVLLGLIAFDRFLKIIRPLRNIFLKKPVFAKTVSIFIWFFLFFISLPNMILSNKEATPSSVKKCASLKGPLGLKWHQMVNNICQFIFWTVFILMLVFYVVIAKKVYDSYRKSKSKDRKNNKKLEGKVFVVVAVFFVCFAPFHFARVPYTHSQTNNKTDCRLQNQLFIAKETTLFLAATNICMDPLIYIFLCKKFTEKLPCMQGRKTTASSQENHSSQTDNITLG
# Assay: IP3 accumulation in 1321N1 cells (AG32) expressing GPR86 (P2Y13) together with Gα16
# Format: cell-based
# Design: expressed in transfected cells; host or cells: 1321N1 astrocytoma clone AG32 (stably expressing Gα16 from pERAEQ2), G418-selected
# Settings: for EC50: 1321N1 cells expressing GPR86 and Gα16, 30 s, mean±S.D. of three independent experiments, read-out: EC50, IP3 accumulation
# Description: Cells of the invention, for example, 1321N1 cells, are labelled for 24 hours with 10 μCi/ml [^3H] inositol in inositol free DMEM containing 5% FCS, antibiotics, amphotericin, sodium pyruvate and 400 μg/ml G418. Cells are incubated for 2 h in Krebs-Ringer Hepes (KRH) buffer of the following composition (124 mM NaCl, 5 mM KCl, 1.25 mM MgSO4, 1.45 mM CaCl2, 1.25 mM KH2PO4, 25 mM Hepes (pH: 7.4) and 8 mM glucose). The cells are then challenged with various nucleotides for 30 s. The incubation is stopped by the addition of an ice cold 3% perchloric acid solution. IP are extracted and separated on Dowex columns as previously described (25). 2MeSATP and ATP solutions (1 mM) are treated at room temperature with 20 units/ml CPK and 10 Mm cp for 90 min to circumvent problems arising from the contamination and degradation of triphosphate nucleotide solutions.
# CHO-K1 and 1321N1 cells were transfected with the recombinant GPR86-pEFIN5 plasmid or with the plasmid alone using the FuGENE™6 transfection reagent (Roche Molecular Biochemicals). A clone called AG32 corresponding to 1321N1 cells previously transfected with pERAEQ2 plasmid encoding Gα16 (provided by Euroscreen), was transfected. The CHO-K1 and 1321N1 transfected cells were selected with 400 μg/ml G418 in complete medium (10% FBS, 100 units/ml penicillin, 100 μg/ml streptomycin and 2.5 μg/ml amphotericin B in respectively Ham's F12 or DMEM (Dulbecco's modified Eagle's) medium) two days after transfection and maintained in the same medium. The AG32 cells were maintained in the same DMEM complete medium supplemented with 500 μg/ml zeocin.
# The pool of G418-resistant clones was tested for its functional IP3 response to several nucleotides, according to the method described above. The cells were challenged by various nucleotides at a concentration of 100 μM for 30 s: ATP, ADP, UTP, UDP, ITP, IDP, TDP.
# Concentration-action curves for ADP, 2MeSADP and ADPβS. […] 1321N1 transfected cells were incubated in the presence of various concentrations of ADP, 2MeSADP and ADPβS for 30 s. The data represent the mean±S.D. of triplicate experimental points obtained in one representative experiment of three.
# AG32 cells were seeded (200,000 cells per dish) on 35 mm (diameter) Petri dishes and labeled for 24 h with 5 μCi/ml [3H]-myoinositol in inositol free DMEM containing 5% fetal calf serum, antibiotics, amphotericin, sodium pyruvate, and 400 μg/ml of G418. Cells were incubated for 2 h in Krebs-Ringer Hepes (KRH) buffer (124 mM NaCl, 5 mM KCl, 1.25 mM MgSO4, 1.45 mM CaCl2, 1.25 mM KH2PO4, 25 mM Hepes (pH 7.4) and 8 mM D-glucose). The cells were then incubated in presence of ADP, ATP or 2MeSATP for 30 s. The incubation was stopped by the addition of 1 ml of an ice-cold 3% perchloric acid solution. Prior to the stimulation, ATP and 2MeSATP (1 mM solutions) were incubated for 90 min at room temperature with 20 units/ml creatine phosphokinase (CPK) and 10 mM creatine phosphate (CP). The reaction was stopped by addition of 10 mM iodoacetamide.
# AG32 cells were seeded (200,000 cells per dish) on 35 mm (diameter) Petri dishes and labeled for 24 h with 5 μCi/ml [^3H]-myoinositol in inositol free DMEM containing 5% fetal calf serum, antibiotics, amphotericin, sodium pyruvate, and 400 μg/ml of G418. Cells were incubated for 2 h in Krebs-Ringer Hepes (KRH) buffer (124 mM NaCl, 5 mM KCl, 1.25 mM MgSO4, 1.45 mM CaCl2, 1.25 mM KH2PO4, 25 mM Hepes (pH 7.4) and 8 mM D-glucose). The cells were then incubated in presence of two different concentrations (100 nM and 10 μM) of ADP or ApnA (n=3-6) for 30 s. The incubation was stopped by the addition of 1 ml of an ice-cold 3% perchloric acid solution.
# AG32 cells were seeded (200,000 cells per dish) on 35 mm (diameter) Petri dishes and labeled for 24 h with 5 μCi/ml [^3H]-myoinositol in inositol free DMEM containing 5% fetal calf serum, antibiotics, amphotericin, sodium pyruvate, and 400 μg/ml of G418.
SMILES,EC50 [nM],"IP3 response to nucleotides (100 μM for 30 s, pool of G418-resistant clones expressing GPR86 and Gα16)"
"CSc1nc(N)c2ncn([C@@H]3O[C@H](COP(=O)(O)OP(=O)(O)O)[C@@H](O)[C@H]3O)c2n1 [2MeSADP, 2-methylthio-ADP]",14.2 ± 3,–
Nc1ncnc2c1ncn2[C@@H]1O[C@H](COP(=O)(O)OP(=O)(O)O)[C@@H](O)[C@H]1O [ADP],11.4 ± 2.2,induced an IP3 response
